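Protocol summary: plate cells (96-well), add compound at 5 concentrations, incubate 48 h, interpolate endpoints linearly. GI50 = concentration required for 50% inhibition of growth. TGI marks complete inhibition of growth.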
Key:
Assay in all cases: NCI-60 cell line screen, 48 h
[1] = system: BT-549 breast
[2] = system: HCT-116 colon
[3] = system: LOX IMVI melanoma
[4] = system: MDA-MB-231 breast
[5] = system: MDA-MB-435
[6] = system: MOLT-4 leukemia
[7] = system: OVCAR-5 ovarian
[8] = system: SF-268 CNS
[9] = system: SNB-19 CNS
[10] = system: UACC-62 melanoma

SMILES	GI50 [1]	TGI [1]	GI50 [2]	TGI [2]	GI50 [3]	TGI [3]	GI50 [4]	TGI [4]	GI50 [5]	TGI [5]	GI50 [6]	TGI [6]	GI50 [7]	TGI [7]	GI50 [8]	TGI [8]	GI50 [9]	TGI [9]	GI50 [10]	TGI [10]
O=C1NC(=O)C(c2ccccc2Cl)=C1Nc1cc(Cl)c(O)c(Cl)c1	16.7 µM	> 25 µM	13.6 µM	> 25 µM	11.3 µM	> 25 µM	> 25 µM	> 25 µM	8.78 µM	> 25 µM	16 µM	> 25 µM	> 25 µM	> 25 µM	12.1 µM	> 25 µM	> 25 µM	> 25 µM	11.4 µM	> 25 µM
CS(=O)(=O)CCNCc1ccc(-c2ccc3ncnc(Nc4ccc(OCc5ccccc5)c(Br)c4)c3c2)o1	8.89 µM	> 25 µM	5.26 µM	11.8 µM	4.36 µM	8.69 µM	4.85 µM	9.87 µM	6.09 µM	15.8 µM	9.2 µM	> 25 µM	7.05 µM	> 25 µM	10.7 µM	> 25 µM	> 20.8 µM	> 25 µM	5.03 µM	9.75 µM
c1ccc2c(NCCCCCCNc3c4ccccc4nc4ccccc34)c3ccccc3nc2c1	–	3.32 µM	–	0.693 µM	–	1.45 µM	–	2.05 µM	–	2.27 µM	–	0.212 µM	–	2.71 µM	–	2.71 µM	–	4.92 µM	–	2.08 µM
CCN(Cc1ccccc1)c1ccc(CO)c(Cl)c1	14.1 µM	44.6 µM	0.11 µM	10.2 µM	23.8 µM	> 100 µM	21.2 µM	> 100 µM	21.4 µM	77.8 µM	29.9 µM	> 87.2 µM	0.164 µM	0.593 µM	26.7 µM	> 70.6 µM	51.4 µM	> 100 µM	0.104 µM	0.695 µM
C=C(C)[C@@H]1CC[C@]2(C(=O)O)CC[C@]3(C)[C@H](CC[C@@H]4[C@@]5(C)CCC(NC(=O)c6cccc(OC(C)=O)c6OC(C)=O)C(C)(C)[C@@H]5CC[C@]43C)[C@@H]12 (stereo not given in full)	1.18 µM	3.67 µM	0.376 µM	1.54 µM	0.488 µM	1.74 µM	1.09 µM	3.88 µM	0.382 µM	1.61 µM	0.497 µM	2.85 µM	1.92 µM	> 27.3 µM	0.78 µM	11.9 µM	0.832 µM	25.7 µM	0.209 µM	0.618 µM
CCOP(=O)(OCC)/C(=C/NC(=S)c1ccncc1)C(=O)OC	–	> 100 µM	–	> 100 µM	–	> 100 µM	–	> 100 µM	–	> 100 µM	–	> 100 µM	–	> 100 µM	–	> 100 µM	–	> 100 µM	–	> 100 µM
COc1ccc(NC([Se])=NC23CC4CC(CC(C4)C2)C3)cc1	0.874 µM	2.32 µM	1.28 µM	2.78 µM	1.91 µM	5.09 µM	1.79 µM	3.91 µM	2.84 µM	19.5 µM	0.611 µM	5.12 µM	1.7 µM	4.68 µM	3.55 µM	> 100 µM	1.86 µM	50.6 µM	1.43 µM	4.96 µM
Cc1ccc(N2C(=O)C=C(C3=C(O)C(=O)N(c4ccc(C)cc4)C3=O)C2=O)cc1	–	> 100 µM	–	> 100 µM	–	> 100 µM	–	> 100 µM	–	> 100 µM	–	> 100 µM	–	> 100 µM	–	> 100 µM	–	> 100 µM	–	> 100 µM

From PubChem BioAssay (NCI)
